Patent publication US10023615B2, “Efficient transport into white blood cells” (priority 2008, dated 2018)
Entries after “also recorded” stand apart in the source; their conditions may differ. Ends that are not written are not given here.

Legend:
[1] = test system: noise trauma (120 dB at 6 kHz); test: Treatment of noise trauma, auditory brainstem response; type: in vivo, guinea pigs; details: 100 μM in hyaluronic acid gel on round window membrane; before or after noise trauma
Procedure: 19. […] Untreated ears served as control. Hearing threshold shifts are evaluated by auditory brainstem response measurements 20 minutes after noise trauma (temporary threshold shift, TTS) and 15 days following the trauma (permanent threshold shift, PTS).

[2] = test system: TC-3 cells; test: Inhibition of IL-1 induced pancreatic beta-cell death; type: cell-based; details: 1 μM single addition, IL-1 10 ng/ml, two days
Procedure: Inhibition of IL-1 induced pancreatic beta-cell death by the D-TAT-IB1(s) peptide was analyzed. TC-3 cells were incubated for 30 minutes with one single addition of the indicated peptides (1, μM), then IL-1 (10 ng/ml) was added.
Apoptotic cells were then counted after two days of incubation with IL-1 by use of Propidium Iodide and Hoechst 33342 nuclear staining. A minimum of 1,000 cells were counted for each experiment.
Long term inhibition of IL-1P induced cell-death by the D-TAT-IB1 peptide was also analyzed. TC-3 cells were incubated for 30 minutes with one single addition of the indicated peptides (1 μM), then IL-1 (10 ng/ml) was added, followed by addition of the cytokine every two days. Apoptotic cells were then counted after 15 days of incubation with IL-1 by use of propidium iodide and Hoechst 33342 nuclear staining. […] A minimum of 1.000 cells were counted for each experiment.

[3] = test system: primary cultured macrophages; test: Incorporation of XG-102 into primary cultured macrophages, antibody detection; type: cell-based; details: incubated and extensively washed; specific antibody
Procedure: FIG. 5: (A): Primary cultured macrophages were incubated with XG-102 (SEQ ID NO: 233) and extensively washed. […] (B): Mice were injected i.v. with 0.1 mg/kg FITC-D-TAT (SEQ ID NO: 4 plus FITC) and were sacrificed 24 hours later with PAF perfusion through the heart. Slices were obtained after cryoprotection using cryostat.

[4] = test system: amyloid plaques in cortex and hippocampus; test: Amyloid depositions and plaque load (6E10 IHC, ThioflavinS) in hAPP Tg mice; type: in vivo, mouse
Procedure: a) METHODS • i) Introduction • The study was designed to evaluate the efficacy of the test substance (XG-102, SEQ ID NO: 233) on behavioral, biochemical and histological markers using 5 months (±2 weeks) old female hAPP Tg mice. Therefore, mice were treated every two or three weeks up to 4 months and in the end of the treatment period behavior was evaluated in the Morris Water Maze. At sacrifice brain, CSF and blood were collected. Aβ40 and Aβ42 levels were determined in four different brain homogenate fractions as well as in CSF of Tg mice. Plaque load was quantified in the cortex and the hippocampus of 8 Tg animals per treatment group.
iv) Treatment • […] female hAPP transgenic mice were treated with either 0.1 mg/kg b.w./every two weeks or 10 mg/kg b.w./every three weeks of the test substance XG-102 (SEQ ID NO: 233) in two different dosages (n=12/group) or treated with the vehicle (n=12) s.c. once every three weeks over four months.
viii) Evaluation of Brain Morphology • Brain tissues of all Tg animals investigated were handled in exactly the same way to avoid bias due to variation of this procedure. From brain halves of 24 Tg mice (8 of each group) 20 cryo-sections per layer (altogether 5 layers), each 10 μm thick (Leica CM 3050S) were sagittally cut and 5 (one from each layer) were processed and evaluated for quantification of plaque load. The five sagittal layers corresponded with the FIGS. 104 to 105, 107 to 108, 111 to 112, 115 to 116 and 118 to 119 according to the morphology atlas “The Mouse Brain” from Paxinos and Franklin (2nd edition). The first layer was specified by the requirement to include the whole hippocampus with it's regions CA1, CA2, CA3, GDlb and GDmb. Immunoreactivity was quantitatively evaluated in the hippocampus and in the cortex using the monoclonal human Aβ-specific antibody 6E10 (Signet) as well as ThioflavinS staining. Remaining brain hemispheres or tissue not used were saved and stored at JSW CNS until the end of the project.
b) Evaluation • i) Behavior • In the Morris Water Maze trials length of swimming path, escape latencies, swimming speed and in the probe trial crossings over the former platform position and the time spent in each quadrant of the pool were measured for each Tg animal with a special computer software. • ii) Biochemical Evaluation • From all Tg mice CSF samples as well as samples from the brain preparations were analyzed with commercially available Aβ1-40 and Aβ1-42 ELISAs. Measurements of adequate standards were performed concurrently. Samples from brain preparations were analyzed in duplicates. […]

[5] = test system: TNBS induced colitis; test: TNBS induced colitis (IBD study); type: in vivo
Procedure: b) Constitution of Test Groups and Dose Levels • The table below lists the experimental groups comprising the study.
c) Test Procedures • Colitis was induced by administration of TNBS dissolved in 50% Ethanol • All animals were then treated with doses of XG-102 in the range of 0.1 to 1000 μg/kg, […], as a single or repeated daily doses (see above).
d) Observations and Examinations • i) Clinical Signs • Throughout the duration of the above experiment, careful clinical examinations were carried out and recorded. Observations included changes external appearance, e.g. of the skin, fur, eyes, mucous membranes, occurrence of secretions and excretions (e.g. diarrhea), and autonomic activity. Changes in gait, posture and response to handling, as well as the presence of bizarre behavior, tremors, convulsions, sleep and coma were also noted. • ii) Body Weights • Determination of individual body weight of animals was made on a daily basis. • iii) Clinical Assessment of Colitis • Body weight, stool consistency and bleeding per rectum were all recorded daily and served as the parameters of disease severity score:
• iv) Gross Pathology of the Colon • On the last day of the experiment, animals were euthanized and the colon was removed for gross pathology evaluation according to the following score: […]

Substance: dqsrpvqpflnIttprkprpprrrqrrkkrg (DQSRPVQPFLNLTTPRKPRPPRRRQRRKKRG; not fully specified (some residues); printed as dqsrpvqpflnIttprkprpprrrqrrkkrg) [XG-102]
- permanent hearing loss (permanent threshold shift) [1]: protected against permanent hearing loss even if applied after exposure to excessive noise
- IL-1 induced apoptosis [2]: decreased IL-1 induced apoptosis to a similar extent as L-TAT-IB peptides
- incorporation into cells [3]: strongly incorporated into primary macrophages
- mean plaque size (ThioflavinS, hippocampus) ([4]; 0.1 mg/kg): reduced mean plaque size, however this effect did not reach significance level in the ANOVA
- 6E10 IR plaque load (human amyloid) ([4]; 10 mg/kg): increased versus vehicle; also recorded: a tendentious increase of human amyloid beta
- hippocampal ThioflavinS positive plaques (number, area percentage) ([4]; 0.1 and 10 mg/kg): a negatively dose dependent reduction; also recorded: dose dependently reduced
- beta-sheet structures in plaques (6E10 and ThioflavinS quantifications) ([4]; mouse, in vivo): a selective reduction of beta-sheet structures in the center of the plaques
- cortical ThioflavinS plaque load ([4]; mouse, in vivo): not given for cortical plaques; also recorded: cortical plaque load remained unchanged
- disease recovery (conclusion) [5]: active in enhancing diseases recovery
- body weights ([5]; TNBS induced weight loss): either prevented the weight loss or ameliorated the symptoms and supported recovery
- clinical score ([5]; any dose, route or time schedule (single dose or daily dose)): an effect equivalent to or better than the one observed with the commonly used reference drug sulfasalazine
- clinical signs ([5]; mouse, in vivo): No abnormalities were observed
- mortality rate ([5]; mouse, in vivo): No mortality was recorded
